Measurements taken from PubChem BioAssay AID1963971 (Molecular Pharmacology Branch, DTP, NCI, 2024).

System: 953936-095-R-J2-PDC spheroids with HUVEC/MSC, viability
Assay: Anticancer human tumor 953936-095-R-J2-PDC patient-derived cervical squamous cell carcinoma cell line growth inhibition [PI3K]
Settings: for viability, T/C: stronger effect = lower value
In short: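 Complex 3D spheroids (cancer cells + endothelial HUVEC + mesenchymal stem cells); drug pairs of targeted agent x inavolisib/alpelisib/duvelisib/copanlisib; half-log series from ~Cmax, max 10 microM if Cmax unknown; endpoint viability.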

[1] = curve of first compound, second compound 0.0316 µM
[2] = curve of first compound, second compound 0.1 µM
[3] = curve of first compound, second compound 0.316 µM
[4] = curve of first compound, second compound 1 µM
[5] = second compound 0.0316 µM, first compound 0.000316 µM
[6] = second compound 0.0316 µM, first compound 0.001 µM
[7] = second compound 0.0316 µM, first compound 0.00316 µM
[8] = second compound 0.0316 µM, first compound 0.01 µM
[9] = second compound 0.0316 µM, first compound 0.0316 µM
[10] = second compound 0.0316 µM, first compound 0.1 µM
[11] = second compound 0.1 µM, first compound 0.000316 µM
[12] = second compound 0.1 µM, first compound 0.001 µM
[13] = second compound 0.1 µM, first compound 0.00316 µM
[14] = second compound 0.1 µM, first compound 0.01 µM
[15] = second compound 0.1 µM, first compound 0.0316 µM
[16] = second compound 0.1 µM, first compound 0.1 µM
[17] = second compound 0.316 µM, first compound 0.000316 µM
[18] = second compound 0.316 µM, first compound 0.001 µM
[19] = second compound 0.316 µM, first compound 0.00316 µM
[20] = second compound 0.316 µM, first compound 0.01 µM
[21] = second compound 0.316 µM, first compound 0.0316 µM
[22] = second compound 0.316 µM, first compound 0.1 µM
[23] = second compound 1 µM, first compound 0.000316 µM
[24] = second compound 1 µM, first compound 0.001 µM
[25] = second compound 1 µM, first compound 0.00316 µM
[26] = second compound 1 µM, first compound 0.01 µM
[27] = second compound 1 µM, first compound 0.0316 µM
[28] = second compound 1 µM, first compound 0.1 µM
[29] = curve of first compound, second compound 3.16 µM
[30] = curve of first compound, second compound 10 µM
[31] = second compound 3.16 µM, first compound 0.0316 µM
[32] = second compound 3.16 µM, first compound 0.1 µM
[33] = second compound 10 µM, first compound 0.0316 µM
[34] = second compound 10 µM, first compound 0.1 µM
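Note: spheroids exposed to compounds for seven days before read-out.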

`CC(=O)c1c(C)c2cnc(Nc3ccc(N4CCNCC4)cn3)nc2n(C2CCCC2)c1=O` + CC(Nc1ccc2c(c1)OCCn1cc(N3C(=O)OCC3C(F)F)nc1-2)C(N)=O showed an IC50 (curve of first compound, second compound 0.00316 µM) of over 100 nM, an IC50 (curve of first compound, second compound 0.01 µM) of over 100 nM and an IC50 [1] of over 100 nM. It also gave an IC50 [2] of over 100 nM, an IC50 [3] of under 0.316 nM and an IC50 [4] of under 0.316 nM. The viability, T/C (second compound 0.00316 µM, first compound 0.000316 µM) was 89.4%, the viability, T/C (second compound 0.00316 µM, first compound 0.001 µM) was 93.1% and the viability, T/C (second compound 0.00316 µM, first compound 0.00316 µM) was 98%. For the same compound, the viability, T/C (second compound 0.00316 µM, first compound 0.01 µM) was 99.6%, the viability, T/C (second compound 0.00316 µM, first compound 0.0316 µM) was 93.5% and the viability, T/C (second compound 0.00316 µM, first compound 0.1 µM) was 93.3%. The viability, T/C (second compound 0.01 µM, first compound 0.000316 µM) was 94.9%, the viability, T/C (second compound 0.01 µM, first compound 0.001 µM) was 87.5% and the viability, T/C (second compound 0.01 µM, first compound 0.00316 µM) was 88.9%. It also gave a viability, T/C (second compound 0.01 µM, first compound 0.01 µM) of 93.8%, a viability, T/C (second compound 0.01 µM, first compound 0.0316 µM) of 85.7% and a viability, T/C (second compound 0.01 µM, first compound 0.1 µM) of 92%. It also gave a viability, T/C [5] of 76.3%, a viability, T/C [6] of 74.9% and a viability, T/C [7] of 74.8%. For the same compound, the viability, T/C [8] was 76.5%, the viability, T/C [9] was 79.1% and the viability, T/C [10] was 68.4%. It also gave a viability, T/C [11] of 66.9%, a viability, T/C [12] of 59.6% and a viability, T/C [13] of 58.6%. It also gave a viability, T/C [14] of 54.5%, a viability, T/C [15] of 55.6% and a viability, T/C [16] of 54.5%. The viability, T/C [17] was 35.2%, the viability, T/C [18] was 34.6% and the viability, T/C [19] was 35.6%. It also gave a viability, T/C [20] of 37.7%, a viability, T/C [21] of 33.6% and a viability, T/C [22] of 35.3%. It also gave a viability, T/C [23] of 25%, a viability, T/C [24] of 22.6% and a viability, T/C [25] of 21.7%. It also gave a viability, T/C [26] of 22%, a viability, T/C [27] of 25.5% and a viability, T/C [28] of 22.9%.
`Cc1nc(NC(=O)N2CCCC2C(N)=O)sc1-c1ccnc(C(C)(C)C(F)(F)F)c1` (stereo not drawn) was tested, and the viability, T/C (compound 0.0316 µM) was 90% [middle of 8 runs], the viability, T/C (compound 0.1 µM) was 80.7% [middle of 8 runs] and the viability, T/C (compound 0.316 µM) was 64.2% [middle of 8 runs]. For the same compound, the viability, T/C (compound 1 µM) was 43.8% [middle of 8 runs], the viability, T/C (compound 3.16 µM) was 28.4% [middle of 8 runs] and the viability, T/C (compound 10 µM) was 13.6% [middle of 8 runs]. For the same compound, the IC50 (compound alone, run of 06/12/2023) was 746 nM [middle of 8 runs].
`CC(=O)c1c(C)c2cnc(Nc3ccc(N4CCNCC4)cn3)nc2n(C2CCCC2)c1=O` + CC(Nc1ncnc2nc[nH]c12)c1cc2cccc(Cl)c2c(=O)n1-c1ccccc1 showed an IC50 [1] of over 100 nM, an IC50 [2] of over 100 nM and an IC50 [3] of over 100 nM. The IC50 [4] was over 100 nM, the IC50 [29] was over 100 nM and the IC50 [30] was over 100 nM. The viability, T/C [5] was 91.6%, the viability, T/C [6] was 99.4% and the viability, T/C [7] was 105%. For the same compound, the viability, T/C [8] was 93.9%, the viability, T/C [9] was 113% and the viability, T/C [10] was 99.4%. It also gave a viability, T/C [11] of 93%, a viability, T/C [12] of 96.4% and a viability, T/C [13] of 105%. It also gave a viability, T/C [14] of 88.2%, a viability, T/C [15] of 99.8% and a viability, T/C [16] of 92.1%. It also gave a viability, T/C [17] of 97.8%, a viability, T/C [18] of 92.8% and a viability, T/C [19] of 90.7%. For the same compound, the viability, T/C [20] was 86.5%, the viability, T/C [21] was 103% and the viability, T/C [22] was 83%. The viability, T/C [23] was 107%, the viability, T/C [24] was 98.4% and the viability, T/C [25] was 85.6%. The viability, T/C [26] was 94%, the viability, T/C [27] was 81.5% and the viability, T/C [28] was 80.2%. For the same compound, the viability, T/C (second compound 3.16 µM, first compound 0.000316 µM) was 81.4%, the viability, T/C (second compound 3.16 µM, first compound 0.001 µM) was 74.4% and the viability, T/C (second compound 3.16 µM, first compound 0.00316 µM) was 78.2%. It also gave a viability, T/C (second compound 3.16 µM, first compound 0.01 µM) of 83.5%, a viability, T/C [31] of 74.8% and a viability, T/C [32] of 70.7%. It also gave a viability, T/C (second compound 10 µM, first compound 0.000316 µM) of 59.9%, a viability, T/C (second compound 10 µM, first compound 0.001 µM) of 68.6% and a viability, T/C (second compound 10 µM, first compound 0.00316 µM) of 55.5%. It also gave a viability, T/C (second compound 10 µM, first compound 0.01 µM) of 69.7%, a viability, T/C [33] of 65.1% and a viability, T/C [34] of 51.3%.
Compound `CNC(=O)c1ccc(N2C(=S)N(c3ccc(C#N)c(C(F)(F)F)c3)C(=O)C2(C)C)cc1F` + Cc1nc(NC(=O)N2CCCC2C(N)=O)sc1-c1ccnc(C(C)(C)C(F)(F)F)c1 has an IC50 [1] of over 10000 nM, an IC50 [2] of over 10000 nM and an IC50 [3] of over 10000 nM. It also gave an IC50 [4] of 53 nM, an IC50 [29] of under 31.6 nM and an IC50 [30] of under 31.6 nM. It also gave a viability, T/C [9] of 85.4%, a viability, T/C [10] of 92.7% and a viability, T/C (second compound 0.0316 µM, first compound 0.316 µM) of 108%. It also gave a viability, T/C (second compound 0.0316 µM, first compound 1 µM) of 105%, a viability, T/C (second compound 0.0316 µM, first compound 3.16 µM) of 83.5% and a viability, T/C (second compound 0.0316 µM, first compound 10 µM) of 79.7%. The viability, T/C [15] was 81.2%, the viability, T/C [16] was 93% and the viability, T/C (second compound 0.1 µM, first compound 0.316 µM) was 78.3%. The viability, T/C (second compound 0.1 µM, first compound 1 µM) was 76.9%, the viability, T/C (second compound 0.1 µM, first compound 3.16 µM) was 74.7% and the viability, T/C (second compound 0.1 µM, first compound 10 µM) was 73.9%. For the same compound, the viability, T/C [21] was 64.1%, the viability, T/C [22] was 65.9% and the viability, T/C (second compound 0.316 µM, first compound 0.316 µM) was 65.3%. It also gave a viability, T/C (second compound 0.316 µM, first compound 1 µM) of 59.9%, a viability, T/C (second compound 0.316 µM, first compound 3.16 µM) of 62.8% and a viability, T/C (second compound 0.316 µM, first compound 10 µM) of 54.3%. The viability, T/C [27] was 54.1%, the viability, T/C [28] was 44.2% and the viability, T/C (second compound 1 µM, first compound 0.316 µM) was 44.3%. For the same compound, the viability, T/C (second compound 1 µM, first compound 1 µM) was 48.6%, the viability, T/C (second compound 1 µM, first compound 3.16 µM) was 41.4% and the viability, T/C (second compound 1 µM, first compound 10 µM) was 38.1%. The viability, T/C [31] was 26.6%, the viability, T/C [32] was 29.8% and the viability, T/C (second compound 3.16 µM, first compound 0.316 µM) was 24.4%. The viability, T/C (second compound 3.16 µM, first compound 1 µM) was 25.5%, the viability, T/C (second compound 3.16 µM, first compound 3.16 µM) was 30% and the viability, T/C (second compound 3.16 µM, first compound 10 µM) was 24.8%. The viability, T/C [33] was 12.2%, the viability, T/C [34] was 11.2% and the viability, T/C (second compound 10 µM, first compound 0.316 µM) was 12.1%. It also gave a viability, T/C (second compound 10 µM, first compound 1 µM) of 11%, a viability, T/C (second compound 10 µM, first compound 3.16 µM) of 11.6% and a viability, T/C (second compound 10 µM, first compound 10 µM) of 10.7%.
